Entries after “also recorded” stand apart in the source; their conditions may differ.
Tests used:
[1] = tested on: replay rivalry criterion and response latency; experiment: Rivalry replay control (criterion for mixed percept and response latency); type: in vivo, human; conditions: donepezil 5 mg oral vs placebo; F(1,22)=1.4
From the text: To ensure any treatment effects were the result of changes in visual neural activity as opposed to changes in motor or executive function, a rivalry replay control experiment was implemented where participants watched computer-generated videos of simulated binocular rivalry, presented identically to both eyes. […] See FIG. 2 for additional details regarding the plots.
Rivalry replay control. A rivalry replay control condition was used to characterize the criterion for categorizing a percept as mixed and to quantify the latency of binocular rivalry responses (Robertson et al., 2013, 2016). The replay control consisted of computer-generated videos presented binocularly, where the stimulus was oscillated from left-oriented gratings to right-oriented gratings along a continuous scale, such that the midpoint of this oscillation would produce a complete mixture of the two gratings. […]
In addition, the overall rate of rivalry, defined as the total number of switches between the exclusive percepts divided by the run duration (Robertson et al., 2013, 2016) was extracted. In order to quantify the magnitude of the effect of the two treatment conditions relative to baseline, mean posttreatment values were divided by the mean baseline values to obtain post/pre ratios for each dependent variable across both experimental conditions. […]

[2] = tested on: binocular rivalry dynamics; experiment: Binocular rivalry task, double-blind placebo-controlled crossover, before and 3 h after donepezil or placebo; type: in vivo, human
From the text: The binocular rivalry task consisted of a dichoptic stimulus where participants viewed a left-tilted grating in one eye and a right-tilted grating in the other for 90 s, continuously indicating via key-press whether they were seeing (1) the left eye's image, (2) the right eye's image, (3) a piecemeal mixture of the two images, or (4) a superimposed mixture of the two images (FIG. 1). This task was used to better characterize the mixed percepts while also encouraging participants not to miscategorize a mixed percept as exclusive.
Binocular rivalry task. A previously developed (Skerswetat et al., 2018) binocular rivalry task was adapted to quantify the fractions and median durations of exclusive, piecemeal, superimposition, and overall mixed percepts (for illustrations, see FIG. 1B). At the beginning of each session, participants were shown images on a document that illustrated the differences between the left-oriented, right-oriented, and superimposition versus piecemeal mixed percepts. Participants were told that they would see a dynamic stimulus during the experiment and that their task was to track what they were seeing, with particular attention to timeliness and accuracy.
Participants were given the option to continuously indicate whether they were seeing either (1) an exclusively left-tilted grating, (2) an exclusively right-tilted grating, (3) a superimposition mixed percept, or (4) a piecemeal mixed percept. Participants used three adjacent keys for the task, using the left to indicate exclusive left-tilt, right for right-tilt, a holding down a combination of the left and right keys for the piecemeal percepts, and the middle key for the superimposition percepts. It was specified that the criterion for exclusive percepts should be ˜90% left or right oriented.
Experimental design and statistical analysis. […] Group assignment was counterbalanced across participants to control for possible session-order effects. The experimenter was not aware of the treatment condition of the two group assignments until after data collection was complete. For safety purposes, the experimenter recorded the participant's systolic blood pressure at baseline and monitored blood pressure levels throughout the experiment.
The general protocol of each experimental block is outlined in FIG. 1A. Each block consisted of two binocular rivalry runs followed by two rivalry replay runs, each lasting 90 s.
Each run (rivalry and replay) began with a dichoptic nonius cross presented inside a 3° oval surrounded by a black-and-white noise (1 cycle/degree) frame (side=10°). The observer was asked to make keypresses to adjust the position of the two frames to calibrate the optimal position for comfortable fusion. After confirmation, the participant was instructed to fixate at a fixation dot (0.2°) and place their hands on the appropriate keys to begin responding to the rivalry task. After a keypress, the dichoptic stimulus appeared and participants began responding to what they were observing on the monitor using the keypress instructions provided at the beginning of each session. Subsequent runs were initiated after a brief break where subjects viewed a mean-gray background screen. […] During the incubation period, subjects were instructed to keep both eyes open and do normal activities such as watching a movie or doing computer work in a well-lit room.
Baseline and posttreatment measurements were drawn from four experimental blocks. A mandatory 2-min break was implemented between each experimental block to prevent fatigue.

visual function = conditions: cited from earlier work

Question: Which “effect on criterion and response latency in rivalry replay control (MANOVA)” value [1] does the source give for `COc1cc2c(cc1OC)C(=O)C(CC1CCN(Cc3ccccc3)CC1)C2` (stereo not drawn) [donepezil] here?
Answer: no observable differences; also recorded: not significant

Question: What about the “overall effect on binocular rivalry dynamics (repeated measures MANOVA of post/pre values)” value ([2]; donepezil 5 mg oral vs placebo, F(1,22)=2.68, p=0.04) of the same molecule?
Answer: significantly altered binocular rivalry dynamics

Question: And the “participants with increases in the fraction of mixed visibility” value ([2]; donepezil 5 mg oral, 3 h, 23 participants)?
Answer: 19 out of 23

Question: What about the “individuals exhibiting donepezil-induced increases of 0.50% in fraction of mixed visibility” value ([2]; donepezil 5 mg oral, 3 h, of the 19 participants with increases) of the same molecule?
Answer: eight

Question: What about the “decrease of rate of binocular rivalry” value ([2]; po, 5 mg, 3 h) of the same molecule?
Answer: 36%

Question: What about the “enhancement of fraction of aggregate mixed visibility during rivalry” value ([2]; po, 5 mg, 3 h) of the same molecule?
Answer: 43%

Question: And the “enhancement of fraction visibility of superimposition percepts” value ([2]; po, 5 mg, 3 h)?
Answer: 70%

Question: And the “increase of median duration of mixed visibility” value ([2]; po, 5 mg, 3 h)?
Answer: 20%

Question: What about the “increase of median duration of piecemeal percepts” value ([2]; po, 5 mg, 3 h) of the same molecule?
Answer: 49%

Question: And the “increase of median duration of superimposition percepts” value ([2]; po, 5 mg, 3 h)?
Answer: 54%

Question: What about the “reduction of fraction of exclusive percepts” value ([2]; po, 5 mg, 3 h) of the same molecule?
Answer: 59%

Question: What about the “reduction of fraction of piecemeal percepts” value ([2]; po, 5 mg, 3 h) of the same molecule?
Answer: 15%

Question: And the “reduction of median duration of exclusive percepts” value ([2]; po, 5 mg, 3 h)?
Answer: 78%

Question: What about the “effect on monocular visual function using perceptual learning” value (visual function; Chung et al., 2017) of the same molecule?
Answer: not useful to improve monocular visual function

Question: And the “effect on perceptual eye dominance changes from short term patching of one eye” value (visual function; Sheynin et al., 2019)?
Answer: impede perceptual eye dominance changes
